Measurements from patent publication US20260256702A1, “SUSTAINED ADJUNCT THERAPY TO IMPROVE CHEMOTHERAPY EFFICACY IN GLIOBLASTOMA IN A CEREBROVASCULA TUMOR-ON-A-CHIP MODEL” (Ohio State Innovation Foundation, priority 2022, published 2026).

Test system: human umbilical vein endothelial cells (HUVECs)
Test: Capillary tubule formation assay
Type: cell-based
Text: We have developed a novel process that combines electrospinning, sintering, and salt leaching to create tunable capsules for long-term controlled release of a compound. The capsules enable high levels of therapeutic loading with preserved bioactivity due to the hollow core that is loaded post-processing without the typical loss seen during encapsulation procedures. The polymers in the device are biocompatible, biodegradable, and used for applications in drug delivery. Chitosan, a positively charged biopolymer was selected for the inner layer of the capsule to electrostatically interact with negatively charged proteins, peptides, and antibodies (e.g. anti-VEGF, αCT11) to slow release. Poly(caprolactone) (PCL) was selected for the outer layer of the device due to its hydrophobicity that slows hydrolytic degradation. Capsule inner diameters ranged from 0.26-1.7 mm, with average wall thickness of 90 μm. Scanning electron microscopy (SEM) was used to measure capsule dimensions and pore size (FIG. 5A). No pores were present after sintering when prepared without salts. Pore size increased from 237±97 nm to 609±274 nm for 1% to 10% salt concentrations, and elution was increased at >5% salt concentration due to pore interconnectivity. In preliminary studies, in vitro release of model protein BSA and anti-VEGF (bevacizumab) were evaluated. […]

“bevacizumab: anti-VEGF (149 kDa), released from capsules” was tested. Which tubule formation (VEGF 5 ng/ml, 10 μg/ml bevacizumab released from capsules at time points out to 9 months) did it give?
Its tubule formation is “tubule formation was inhibited”.

And the “tubule size versus fresh anti-VEGF control” value (anti-VEGF released after 9 months, 5 ng VEGF)?
The value was “no significant difference in tubule size”.
